Reference: publication PMC8206213, “An L-2-hydroxyglutarate biosensor based on specific transcriptional regulator LhgR” (Nature Communications, 2021)
“And” between values parts separate entries of the source, which are not always exact repeats. Equal entries are not always repeated.

Assay: Dose-response of purified LHGFR and its variants for L-2-HG in 50 mM Tris-HCl buffer (pH 7.4), Venus/mTFP emission ratio
Type: binding
Method: Purified L-2-HG biosensors and different compounds were diluted by 50 mM Tris-HCl buffer (pH 7.4), mixed together in a black 96-well plate at a volume ratio of 3:1, and the fluorescence intensities were measured using an EnSight microplate reader (PerkinElmer, USA) with excitation at 430 nm, emission at 485 nm (mTFP) and 528 nm (Venus). The dose-response curves were fitted by OriginPro 2016 software (OriginLab) according to the following formula:1 R=Rmax+Rmin−Rmax/1+([L-2-HG]/Kd)^p where R, Rmin, and Rmax refer to the emission ratio of Venus to mTFP, ratio in the absence of L-2-HG, and ratio at saturation with L-2-HG, respectively. The [L-2-HG], Kd, and p refer to the L-2-HG concentration, apparent dissociation constant, and Hill slope, respectively. Emission spectra were recorded at 430 nm excitation, in steps of 2 nm. Excitation spectra were recorded using emission at 550 nm, excitation from 380 to 535 nm in steps of 2 nm.

O=C(O)CC[C@H](O)C(=O)O [L-2-HG, L-2-Hydroxyglutarate]
Emission ratio of 528/485 (For L-2-HG, 2-HG concentration 0.01, Suppl. Fig. 9c): 1.3857 and 1.387 and 1.404
Emission ratio of 528/485 (For L-2-HG, 2-HG concentration 0.01, Suppl. Fig. 9d): 1.655 and 1.676 and 1.693
Emission ratio of 528/485 (For L-2-HG, 2-HG concentration 0.1, Suppl. Fig. 9c): 1.381 and 1.392 and 1.391
Emission ratio of 528/485 (For L-2-HG, 2-HG concentration 0.1, Suppl. Fig. 9d): 1.641 and 1.674 and 1.689
Emission ratio of 528/485 (For L-2-HG, 2-HG concentration 0.2, Suppl. Fig. 9c): 1.397 and 1.394 and 1.401
Emission ratio of 528/485 (For L-2-HG, 2-HG concentration 0.2, Suppl. Fig. 9d): 1.675 and 1.688 and 1.698
Emission ratio of 528/485 (For L-2-HG, 2-HG concentration 1, Suppl. Fig. 9c): 1.392 and 1.412 and 1.423
Emission ratio of 528/485 (For L-2-HG, 2-HG concentration 1, Suppl. Fig. 9d): 1.753 and 1.778 and 1.797
Emission ratio of 528/485 (For L-2-HG, 2-HG concentration 2, Suppl. Fig. 9c): 1.425 and 1.451 and 1.463
Emission ratio of 528/485 (For L-2-HG, 2-HG concentration 2, Suppl. Fig. 9d): 1.892 and 1.897 and 1.889
Emission ratio of 528/485 (For L-2-HG, 2-HG concentration 10, Suppl. Fig. 9c): 1.602 and 1.628 and 1.623
Emission ratio of 528/485 (For L-2-HG, 2-HG concentration 10, Suppl. Fig. 9d): 2.254 and 2.242 and 2.288
Emission ratio of 528/485 (For L-2-HG, 2-HG concentration 20, Suppl. Fig. 9c): 1.712 and 1.7343 and 1.752
Emission ratio of 528/485 (For L-2-HG, 2-HG concentration 20, Suppl. Fig. 9d): 2.359 and 2.347 and 2.363
Emission ratio of 528/485 (For L-2-HG, 2-HG concentration 100, Suppl. Fig. 9c): 1.988 and 1.973 and 1.992
Emission ratio of 528/485 (For L-2-HG, 2-HG concentration 100, Suppl. Fig. 9d): 2.568 and 2.652 and 2.688
Emission ratio of 528/485 (For L-2-HG, 2-HG concentration 200, Suppl. Fig. 9c): 2.0666 and 2.05 and 2.077
Emission ratio of 528/485 (For L-2-HG, 2-HG concentration 200, Suppl. Fig. 9d): 2.563 and 2.676 and 2.688
Emission ratio of 528/485 (For L-2-HG, 2-HG concentration 1000, Suppl. Fig. 9c): 2.162 and 2.183 and 2.153
Emission ratio of 528/485 (For L-2-HG, 2-HG concentration 1000, Suppl. Fig. 9d): 2.635 and 2.6341 and 2.632
Emission ratio of 528/485 (For L-2-HG, 2-HG concentration 2000, Suppl. Fig. 9c): 2.173 and 2.178 and 2.17
Emission ratio of 528/485 (For L-2-HG, 2-HG concentration 2000, Suppl. Fig. 9d): 2.667 and 2.655 and 2.697
Emission ratio of 528/485 (Supplementary Fig. 6a, L-2-HG concentration 0.01): 1.3857 and 1.387 and 1.404
Emission ratio of 528/485 (Supplementary Fig. 6a, L-2-HG concentration 0.1): 1.381 and 1.392 and 1.391
Emission ratio of 528/485 (Supplementary Fig. 6a, L-2-HG concentration 0.2): 1.397 and 1.394 and 1.401
Emission ratio of 528/485 (Supplementary Fig. 6a, L-2-HG concentration 1): 1.392 and 1.412 and 1.423
Emission ratio of 528/485 (Supplementary Fig. 6a, L-2-HG concentration 2): 1.425 and 1.451 and 1.463
Emission ratio of 528/485 (Supplementary Fig. 6a, L-2-HG concentration 10): 1.602 and 1.628 and 1.623
Emission ratio of 528/485 (Supplementary Fig. 6a, L-2-HG concentration 20): 1.712 and 1.7343 and 1.752
Emission ratio of 528/485 (Supplementary Fig. 6a, L-2-HG concentration 100): 1.988 and 1.973 and 1.992
Emission ratio of 528/485 (Supplementary Fig. 6a, L-2-HG concentration 200): 2.0666 and 2.05 and 2.077
Emission ratio of 528/485 (Supplementary Fig. 6a, L-2-HG concentration 1000): 2.162 and 2.183 and 2.153
Emission ratio of 528/485 (Supplementary Fig. 6a, L-2-HG concentration 2000): 2.173 and 2.178 and 2.17
Emission ratio of 528/485 (Supplementary Fig. 6b, L-2-HG concentration 0.01): 1.79 and 1.921 and 1.894
Emission ratio of 528/485 (Supplementary Fig. 6b, L-2-HG concentration 0.1): 1.777 and 1.91 and 1.94
Emission ratio of 528/485 (Supplementary Fig. 6b, L-2-HG concentration 1): 2.057 and 2.207 and 2.255
Emission ratio of 528/485 (Supplementary Fig. 6b, L-2-HG concentration 2): 2.268 and 2.379 and 2.449
Emission ratio of 528/485 (Supplementary Fig. 6b, L-2-HG concentration 10): 2.5843 and 2.787 and 2.825
Emission ratio of 528/485 (Supplementary Fig. 6b, L-2-HG concentration 20): 2.72 and 2.88 and 2.892
Emission ratio of 528/485 (Supplementary Fig. 6b, L-2-HG concentration 100): 2.76 and 2.892 and 2.986
Emission ratio of 528/485 (Supplementary Fig. 6b, L-2-HG concentration 1000): 2.847 and 2.935 and 2.998
Emission ratio of 528/485 (Supplementary Fig. 6b, L-2-HG concentration 2000): 2.912 and 2.995 and 3.032
Emission ratio of 528/485 (Supplementary Fig. 6c, L-2-HG concentration 0.01): 1.881 and 1.865 and 1.887
Emission ratio of 528/485 (Supplementary Fig. 6c, L-2-HG concentration 0.1): 1.869 and 1.918 and 1.908
Emission ratio of 528/485 (Supplementary Fig. 6c, L-2-HG concentration 1): 2.144 and 2.182 and 2.149
Emission ratio of 528/485 (Supplementary Fig. 6c, L-2-HG concentration 2): 2.3419 and 2.384 and 2.402
Emission ratio of 528/485 (Supplementary Fig. 6c, L-2-HG concentration 10): 2.743 and 2.7667 and 2.84
Emission ratio of 528/485 (Supplementary Fig. 6c, L-2-HG concentration 20): 2.846 and 2.91 and 2.871
Emission ratio of 528/485 (Supplementary Fig. 6c, L-2-HG concentration 100): 2.914 and 2.957 and 2.953
Emission ratio of 528/485 (Supplementary Fig. 6c, L-2-HG concentration 1000): 2.894 and 2.9819 and 2.963
Emission ratio of 528/485 (Supplementary Fig. 6c, L-2-HG concentration 2000): 2.899 and 2.986 and 2.9894
Emission ratio of 528/485 (Supplementary Fig. 6e, L-2-HG concentration 0.01): 1.655 and 1.676 and 1.693
Emission ratio of 528/485 (Supplementary Fig. 6e, L-2-HG concentration 0.1): 1.641 and 1.674 and 1.689
Emission ratio of 528/485 (Supplementary Fig. 6e, L-2-HG concentration 0.2): 1.675 and 1.688 and 1.698
Emission ratio of 528/485 (Supplementary Fig. 6e, L-2-HG concentration 1): 1.753 and 1.778 and 1.797
Emission ratio of 528/485 (Supplementary Fig. 6e, L-2-HG concentration 2): 1.892 and 1.897 and 1.889
Emission ratio of 528/485 (Supplementary Fig. 6e, L-2-HG concentration 10): 2.254 and 2.242 and 2.288
Emission ratio of 528/485 (Supplementary Fig. 6e, L-2-HG concentration 20): 2.359 and 2.347 and 2.363
Emission ratio of 528/485 (Supplementary Fig. 6e, L-2-HG concentration 100): 2.568 and 2.652 and 2.688
Emission ratio of 528/485 (Supplementary Fig. 6e, L-2-HG concentration 200): 2.563 and 2.676 and 2.688
Emission ratio of 528/485 (Supplementary Fig. 6e, L-2-HG concentration 1000): 2.635 and 2.6341 and 2.632
Emission ratio of 528/485 (Supplementary Fig. 6e, L-2-HG concentration 2000): 2.667 and 2.655 and 2.697
Emission ratio of 528/485 (Supplementary Fig. 6d, L-2-HG concentration 0.01): 1.72 and 1.724 and 1.742
Emission ratio of 528/485 (Supplementary Fig. 6d, L-2-HG concentration 0.1): 1.742 and 1.747 and 1.746
Emission ratio of 528/485 (Supplementary Fig. 6d, L-2-HG concentration 1): 1.865 and 1.88 and 1.882
Emission ratio of 528/485 (Supplementary Fig. 6d, L-2-HG concentration 2): 2.014 and 2.037 and 2.039
Emission ratio of 528/485 (Supplementary Fig. 6d, L-2-HG concentration 10): 2.446 and 2.449 and 2.469
Emission ratio of 528/485 (Supplementary Fig. 6d, L-2-HG concentration 20): 2.546 and 2.554 and 2.592
Emission ratio of 528/485 (Supplementary Fig. 6d, L-2-HG concentration 100): 2.59 and 2.651 and 2.67
Emission ratio of 528/485 (Supplementary Fig. 6d, L-2-HG concentration 1000): 2.653 and 2.699 and 2.7087
Emission ratio of 528/485 (Supplementary Fig. 6d, L-2-HG concentration 2000): 2.665 and 2.7183 and 2.7325
